From patent publication US20230265059A1, “SOLID STATE FORMS OF 6-CARBOXY-2-(3, 5-DICHLOROPHENYL)-BENZOXAZOLE OF FORMULA-I AND PHARMACEUTICALLY ACCEPTABLE SALTS THEREOF” (NURAY CHEMICALS PRIVATE LIMITED, priority 2020, published 2023)

Experiment: Drying of the hydrate form to remove water
Format: physicochemical
Settings: hydrate form having moisture content about 6.64%; drying at 55° C. temperature for 24 hours
Source text: The hydrate form of 6-carboxy-2-(3,5-dichlorophenyl)-benzoxazole meglumine of Formula-IA according to the present disclosure having moisture content in the range of about 3.5% to about 9% preferably about 5 to 7%. The hydrate form of 6-carboxy-2-(3,5-dichlorophenyl)-benzoxazole meglumine salt of Formula-IA having moisture up to 15 to 20% but the only 5 to 7% water is present in crystal lattice and the excess water molecule is present in surface of the Tafamidis meglumine crystal. […] The hydrate form of 6-carboxy-2-(3,5-dichlorophenyl)-benzoxazole meglumine salt of Formula-IA having moisture content about 6.64% and moisture content about 15% are resulting the same PXRD diffractogram. This confirms the water molecules up to moisture content about 6% is present in crystal lattice and the excess water is present in surface of the crystal. In an another embodiment, the present disclosure, the hydrate form of 6-carboxy-2-(3,5-dichlorophenyl)-benzoxazole meglumine having DSC as depicted in FIG. 1 and having TGA as depicted in FIG. 2.

water content after drying: not considerably reduced
Structure (SMILES): O=C(O)c1ccc2nc(-c3cc(Cl)cc(Cl)c3)oc2c1 [6-carboxy-2-(3,5-dichlorophenyl)-benzoxazole meglumine]
